Source: patent US20230085307A1, “PYRIDAZINONE COMPOUND AND HERBICIDE” (NISSAN CHEMICAL CORPORATION, priority 2019, published 2023)

Assays:
lambsquarters [1] = assay: Test Example 5: herbicidal effect by foliage application, plastic box (Table 20, symbol O); type: in vivo, lambsquarters (Chenopodium album); details: foliage application, 320 g/ha, three weeks after application
How it was run: (§1)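 Plants sown in sterilized diluvial soil and grown 14 days in a greenhouse at 25° C to 30° C, then sprayed on the foliage with the compound's emulsion diluted in water to a predetermined herbicide amount. Injury to weeds and crops scored three weeks after application on a visual rating scale.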

chickweed [2] = assay: Test Example 4: herbicidal effect by soil treatment (Table 19, symbol P); type: in vivo, common chickweed (Stellaria media); details: amount of applied herbicide 320 g/ha
How it was run: (§2)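 Seeds were sown in sterilized diluvial soil and covered with about 1.5 cm of soil. An emulsion formulation diluted with water to a predetermined herbicide amount was sprayed evenly onto the soil surface. Plants grew in a greenhouse at 25° C. to 30° C., and the effect was scored three weeks after application using criteria from an earlier test.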

Chinese sprangletop = assay: Test Example 3: herbicidal effect by foliage application, Wagner pot (Table 18, symbol D); type: in vivo, chinese sprangletop (Leptochloa chinensis)
How it was run: (§3)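 Plants were sown in alluvial soil held under 0.1–0.5 cm standing water and grown 14 days in a greenhouse at 25–30 °C. An emulsifiable formulation, water-diluted to the set dose, was then sprayed onto the foliage, and effects were scored three weeks later using previously defined criteria.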

velvetleaf [3] = assay: Test Example 4: herbicidal effect by soil treatment (Table 19, symbol M); type: in vivo, velvetleaf (Abutilon theophrasti); details: amount of applied herbicide 320 g/ha
How it was run: as §2

southern crabgrass [4] = assay: Test Example 5: herbicidal effect by foliage application, plastic box (Table 20, symbol F); type: in vivo, southern crabgrass (Digitaria ciliaris); details: foliage application, 320 g/ha, three weeks after application
How it was run: as §1

barnyard grass [5] = assay: Test Example 3: herbicidal effect by foliage application, Wagner pot (Table 18, symbol H); type: in vivo, barnyard grass (Echinochloa crus-galli)
How it was run: as §3

persian speedwell [6] = assay: Test Example 4: herbicidal effect by soil treatment (Table 19, symbol R); type: in vivo, Persian speedwell (Veronica persica); details: amount of applied herbicide 320 g/ha
How it was run: as §2

persian speedwell [7] = assay: Test Example 5: herbicidal effect by foliage application, plastic box (Table 20, symbol R); type: in vivo, Persian speedwell (Veronica persica); details: foliage application, 320 g/ha, three weeks after application
How it was run: as §1

blackgrass [8] = assay: Test Example 5: herbicidal effect by foliage application, plastic box (Table 20, symbol J); type: in vivo, blackgrass (Alopecurus myosuroides); details: foliage application, 320 g/ha, three weeks after application
How it was run: as §1

rice flat sedge = assay: Test Example 3: herbicidal effect by foliage application, Wagner pot (Table 18, symbol E); type: in vivo, rice flat sedge (Cyperus iria)
How it was run: as §3

green foxtail [9] = assay: Test Example 4: herbicidal effect by soil treatment (Table 19, symbol G); type: in vivo, green foxtail (Setaria viridis); details: amount of applied herbicide 320 g/ha
How it was run: as §2

windgrass [10] = assay: Test Example 5: herbicidal effect by foliage application, plastic box (Table 20, symbol L); type: in vivo, windgrass (Apera spica-venti); details: foliage application, 320 g/ha, three weeks after application
How it was run: as §1

false cleavers [11] = assay: Test Example 4: herbicidal effect by soil treatment (Table 19, symbol Q); type: in vivo, false cleavers (Galium spurium); details: amount of applied herbicide 320 g/ha
How it was run: as §2

redroot pigweed [12] = assay: Test Example 5: herbicidal effect by foliage application, plastic box (Table 20, symbol N); type: in vivo, redroot pigweed (Amaranthus retroflexus); details: foliage application, 320 g/ha, three weeks after application
How it was run: as §1

green foxtail [13] = assay: Test Example 5: herbicidal effect by foliage application, plastic box (Table 20, symbol G); type: in vivo, green foxtail (Setaria viridis); details: foliage application, 320 g/ha, three weeks after application
How it was run: as §1

wild oat [14] = assay: Test Example 5: herbicidal effect by foliage application, plastic box (Table 20, symbol I); type: in vivo, wild oat (Avena fatua); details: foliage application, 320 g/ha, three weeks after application
How it was run: as §1

barnyard grass [15] = assay: Test Example 4: herbicidal effect by soil treatment (Table 19, symbol H); type: in vivo, barnyard grass (Echinochloa crus-galli); details: amount of applied herbicide 320 g/ha
How it was run: as §2

barnyard grass [16] = assay: Test Example 5: herbicidal effect by foliage application, plastic box (Table 20, symbol H); type: in vivo, barnyard grass (Echinochloa crus-galli); details: foliage application, 320 g/ha, three weeks after application
How it was run: as §1

lambsquarters [17] = assay: Test Example 4: herbicidal effect by soil treatment (Table 19, symbol O); type: in vivo, lambsquarters (Chenopodium album); details: amount of applied herbicide 320 g/ha
How it was run: as §2

Italian ryegrass [18] = assay: Test Example 5: herbicidal effect by foliage application, plastic box (Table 20, symbol K); type: in vivo, Italian ryegrass (Lolium multiflorum); details: foliage application, 320 g/ha, three weeks after application
How it was run: as §1

velvetleaf [19] = assay: Test Example 5: herbicidal effect by foliage application, plastic box (Table 20, symbol M); type: in vivo, velvetleaf (Abutilon theophrasti); details: foliage application, 320 g/ha, three weeks after application
How it was run: as §1

chickweed [20] = assay: Test Example 5: herbicidal effect by foliage application, plastic box (Table 20, symbol P); type: in vivo, common chickweed (Stellaria media); details: foliage application, 320 g/ha, three weeks after application
How it was run: as §1

windgrass [21] = assay: Test Example 4: herbicidal effect by soil treatment (Table 19, symbol L); type: in vivo, windgrass (Apera spica-venti); details: amount of applied herbicide 320 g/ha
How it was run: as §2

false cleavers [22] = assay: Test Example 5: herbicidal effect by foliage application, plastic box (Table 20, symbol Q); type: in vivo, false cleavers (Galium spurium); details: foliage application, 320 g/ha, three weeks after application
How it was run: as §1

redroot pigweed [23] = assay: Test Example 4: herbicidal effect by soil treatment (Table 19, symbol N); type: in vivo, redroot pigweed (Amaranthus retroflexus); details: amount of applied herbicide 320 g/ha
How it was run: as §2

Italian ryegrass [24] = assay: Test Example 4: herbicidal effect by soil treatment (Table 19, symbol K); type: in vivo, Italian ryegrass (Lolium multiflorum); details: amount of applied herbicide 320 g/ha
How it was run: as §2

wild oat [25] = assay: Test Example 4: herbicidal effect by soil treatment (Table 19, symbol I); type: in vivo, wild oat (Avena fatua); details: amount of applied herbicide 320 g/ha
How it was run: as §2

blackgrass [26] = assay: Test Example 4: herbicidal effect by soil treatment (Table 19, symbol J); type: in vivo, blackgrass (Alopecurus myosuroides); details: amount of applied herbicide 320 g/ha
How it was run: as §2

southern crabgrass [27] = assay: Test Example 4: herbicidal effect by soil treatment (Table 19, symbol F); type: in vivo, southern crabgrass (Digitaria ciliaris); details: amount of applied herbicide 320 g/ha
How it was run: as §2

[28] = amount of applied herbicide 320 g/ha

Row | SMILES | O: lambsquarters, herbicidal effect grade (lambsquarters [1]) | P: chickweed, herbicidal effect grade (chickweed [2]) | M: velvetleaf, herbicidal effect grade (velvetleaf [3]) | F: southern crabgrass, herbicidal effect grade (southern crabgrass [4]) | R: persian speedwell, herbicidal effect grade (persian speedwell [6]) | R: persian speedwell, herbicidal effect grade (persian speedwell [7]) | J: blackgrass, herbicidal effect grade (blackgrass [8]) | G: green foxtail, herbicidal effect grade (green foxtail [9]) | L: windgrass, herbicidal effect grade (windgrass [10]) | Q: false cleavers, herbicidal effect grade (false cleavers [11]) | N: redroot pigweed, herbicidal effect grade (redroot pigweed [12]) | G: green foxtail, herbicidal effect grade (green foxtail [13]) | I: wild oat, herbicidal effect grade (wild oat [14]) | H: barnyard grass, herbicidal effect grade (barnyard grass [15]) | H: barnyard grass, herbicidal effect grade (barnyard grass [16]) | O: lambsquarters, herbicidal effect grade (lambsquarters [17]) | K: Italian ryegrass, herbicidal effect grade (Italian ryegrass [18]) | M: velvetleaf, herbicidal effect grade (velvetleaf [19]) | P: chickweed, herbicidal effect grade (chickweed [20]) | L: windgrass, herbicidal effect grade (windgrass [21]) | other results
1 | CCCC(=O)Oc1c(C)nn(C)c(=O)c1-c1c(-c2ccc(F)cc2)sc2cc(Cl)ccc12 [3-032] | 4 (Herbicidal rate of 70% or more and less than 90%) | 4 (Herbicidal rate of 70% or more and less than 90%) | 0 (Herbicidal rate of 5% or less (almost no effect)) | 4 (Herbicidal rate of 70% or more and less than 90%) | 5 (Herbicidal rate of 90% or more (almost completely withered)) | 5 (Herbicidal rate of 90% or more (almost completely withered)) | 4 (Herbicidal rate of 70% or more and less than 90%) | 0 (Herbicidal rate of 5% or less (almost no effect)) | 5 (Herbicidal rate of 90% or more (almost completely withered)) | 3 (Herbicidal rate of 40% or more and less than 70%) | 5 (Herbicidal rate of 90% or more (almost completely withered)) | 4 (Herbicidal rate of 70% or more and less than 90%) | 5 (Herbicidal rate of 90% or more (almost completely withered)) | 0 (Herbicidal rate of 5% or less (almost no effect)) | 4 (Herbicidal rate of 70% or more and less than 90%) | 4 (Herbicidal rate of 70% or more and less than 90%) | 4 (Herbicidal rate of 70% or more and less than 90%) | 4 (Herbicidal rate of 70% or more and less than 90%) | 5 (Herbicidal rate of 90% or more (almost completely withered)) | 3 (Herbicidal rate of 40% or more and less than 70%) | herbicidal effect on D: Chinese sprangletop (Chinese sprangletop; [28]): 3 (Herbicidal rate of 40% or more and less than 70%); herbicidal effect on H: barnyard grass (barnyard grass [5]; [28]): 5 (Herbicidal rate of 90% or more (almost completely withered)); herbicidal effect on E: rice flat sedge (rice flat sedge; [28]): 3 (Herbicidal rate of 40% or more and less than 70%); Q: false cleavers, herbicidal effect grade (false cleavers [22]): 0 (Herbicidal rate of 5% or less (almost no effect)); N: redroot pigweed, herbicidal effect grade (redroot pigweed [23]): 4 (Herbicidal rate of 70% or more and less than 90%); K: Italian ryegrass, herbicidal effect grade (Italian ryegrass [24]): 0 (Herbicidal rate of 5% or less (almost no effect)); I: wild oat, herbicidal effect grade (wild oat [25]): 0 (Herbicidal rate of 5% or less (almost no effect)); J: blackgrass, herbicidal effect grade (blackgrass [26]): 0 (Herbicidal rate of 5% or less (almost no effect)); F: southern crabgrass, herbicidal effect grade (southern crabgrass [27]): 0 (Herbicidal rate of 5% or less (almost no effect))
2 | CCCC(=O)Oc1c(C)nn(C)c(=O)c1-c1c(-c2ccc(OC)cc2)sc2cc(Cl)ccc12 [3-038] | 3 (Herbicidal rate of 40% or more and less than 70%) | 1 (Herbicidal rate of 5% or more and less than 20%) | 0 (Herbicidal rate of 5% or less (almost no effect)) | 0 (Herbicidal rate of 5% or less (almost no effect)) | 2 (Herbicidal rate of 20% or more and less than 40%) | 3 (Herbicidal rate of 40% or more and less than 70%) | 0 (Herbicidal rate of 5% or less (almost no effect)) | 0 (Herbicidal rate of 5% or less (almost no effect)) | 0 (Herbicidal rate of 5% or less (almost no effect)) | 0 (Herbicidal rate of 5% or less (almost no effect)) | 1 (Herbicidal rate of 5% or more and less than 20%) | 0 (Herbicidal rate of 5% or less (almost no effect)) | 0 (Herbicidal rate of 5% or less (almost no effect)) | 0 (Herbicidal rate of 5% or less (almost no effect)) | 0 (Herbicidal rate of 5% or less (almost no effect)) | 3 (Herbicidal rate of 40% or more and less than 70%) | 0 (Herbicidal rate of 5% or less (almost no effect)) | 3 (Herbicidal rate of 40% or more and less than 70%) | 3 (Herbicidal rate of 40% or more and less than 70%) | 0 (Herbicidal rate of 5% or less (almost no effect)) | herbicidal effect on Chinese sprangletop (D) (Chinese sprangletop; 320 g/ha): 1 (Herbicidal rate of 5% or more and less than 20%); herbicidal effect on barnyard grass (H) (barnyard grass [5]; 320 g/ha): 3 (Herbicidal rate of 40% or more and less than 70%); herbicidal effect on rice flat sedge (E) (rice flat sedge; 320 g/ha): 3 (Herbicidal rate of 40% or more and less than 70%); Q: false cleavers, herbicidal effect grade (false cleavers [22]): 0 (Herbicidal rate of 5% or less (almost no effect)); N: redroot pigweed, herbicidal effect grade (redroot pigweed [23]): 1 (Herbicidal rate of 5% or more and less than 20%); K: Italian ryegrass, herbicidal effect grade (Italian ryegrass [24]): 0 (Herbicidal rate of 5% or less (almost no effect)); I: wild oat, herbicidal effect grade (wild oat [25]): 0 (Herbicidal rate of 5% or less (almost no effect)); J: blackgrass, herbicidal effect grade (blackgrass [26]): 0 (Herbicidal rate of 5% or less (almost no effect)); F: southern crabgrass, herbicidal effect grade (southern crabgrass [27]): 0 (Herbicidal rate of 5% or less (almost no effect))
